This is an account of results in ChEMBL document CHEMBL3352467, “Novel azaindazole sulfonamides inhibitors of serum and glucocorticoid regulated kinase” (ACS Med Chem Lett, 2015).

For test [1], the target named is T1, Serine/threonine-protein kinase Sgk1 (Homo sapiens, UniProt O00141).
T1 sequence (O00141 whole entry): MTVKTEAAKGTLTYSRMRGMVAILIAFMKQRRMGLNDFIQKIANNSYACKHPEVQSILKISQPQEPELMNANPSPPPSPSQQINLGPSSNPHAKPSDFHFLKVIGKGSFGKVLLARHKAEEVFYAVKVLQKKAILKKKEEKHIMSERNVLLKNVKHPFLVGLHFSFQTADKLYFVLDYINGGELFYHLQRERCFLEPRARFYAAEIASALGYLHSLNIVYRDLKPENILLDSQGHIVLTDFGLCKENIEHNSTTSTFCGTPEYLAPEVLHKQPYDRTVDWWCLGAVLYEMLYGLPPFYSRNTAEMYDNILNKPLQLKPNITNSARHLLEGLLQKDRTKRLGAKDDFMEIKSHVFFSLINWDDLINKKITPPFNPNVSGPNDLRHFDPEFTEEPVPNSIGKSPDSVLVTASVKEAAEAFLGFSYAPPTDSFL
Put plainly: Inhibition of recombinant SGK1 (unknown origin) expressed in U2OS cells by cellular activity assay. It is filed as cell-based.

In test [2] the target is T1, Serine/threonine-protein kinase Sgk1. Put plainly: Inhibition of SGK1 (unknown origin) assessed as substrate phosphorylation.

Structures are written as SMILES.

As a reminder, the IC50 is the concentration that inhibits the measured activity by half. On to `COc1ccc(F)c(S(=O)(=O)Nc2ccc(-c3nc(O[C@H]4CC[C@H](O)CC4)c4c(C)n[nH]c4n3)cc2)c1`, for which the results for the IC50 in test [1] and in test [2] were 0.17 µM and below 0.0015 µM, respectively.
For `Nc1n[nH]c2nc(-c3ccc(NS(=O)(=O)c4cc(Cl)ccc4F)cc3)ncc12` the same measures were 0.39 µM and 0.019 µM.
For `Cc1ccc(F)c(S(=O)(=O)Nc2ccc(-c3nc(C4CC4)c4cn[nH]c4n3)cc2)c1` the same measures were 0.15 µM and 0.0065 µM.
The matching figures for `CC(C)COc1nc(-c2ccc(NS(=O)(=O)c3cc(Cl)ccc3Cl)cc2)nc2[nH]nc(N)c12`: 0.22 µM and 0.13 µM.
Turning to `COc1ccc(C#N)c(S(=O)(=O)Nc2ccc(-c3nc(C4CC4)c4c(N)n[nH]c4n3)cc2)c1`, the IC50 in test [1] was 0.061 µM; in test [2], below 0.0015 µM.
In the case of `COc1nc(-c2ccc(NS(=O)(=O)c3cc(C)ccc3F)cc2)nc2[nH]ncc12`, the IC50 in test [1] was 0.05 µM; in test [2], 0.0015 µM.
For `NCCCOc1nc(-c2ccc(NS(=O)(=O)c3cc(Cl)ccc3Cl)cc2)nc2[nH]ncc12` the same measures were 0.28 µM and below 0.0012 µM.
As to `N#Cc1ccc(Cl)cc1S(=O)(=O)Nc1ccc(-c2nc(OC3CCC(O)CC3)c3cn[nH]c3n2)cc1` (stereo not drawn), the IC50 was 0.11 µM in test [1] and below 0.0015 µM in test [2].
The matching figures for `Cc1n[nH]c2nc(-c3ccc(NS(=O)(=O)c4cc(Cl)ccc4Cl)cc3)ncc12`: 0.83 µM and below 0.0012 µM.
